Laboratory results reported in patent US11590117B2, “Treatment of a hematologic malignancy with 2-(4-chlorophenyl)-n-((2-(2,6-dioxopiperidin-3-yl)-1-oxoisoindolin-5-yl)methyl)-2,2-difluoroacetamide” (priority 2016, dated 2023).
Like-named read-outs stand apart in the source and are kept apart here.

What was measured:
[1] = tested on: Red-labeled AML cell lines; assay: IncuCyte live cell imaging of cell viability, sub-panel of twelve Red-labeled AML cell lines; assay type: cell-based; details: Homo sapiens, 96 h
Experimental: Derivation of Red-labeled Acute Myeloid Leukemia Cell Lines: Twelve cell lines, including AML-193, HL-60, KG-1, ML-2, MOLM-13, MV-4-11, NOMO-1, OCI-AML2, OCI-AML3, SIG-M5, TF-1, and THP-1, were stably transduced with Red lentivirus. Cells were plated in 6-well plates in growth media, incubated with 8 µg/mL polybrene (EMD Millipore Cat no. TR-1003-G) followed by infection with CellPlayer™ NucLight™ Red-lentiviral particles (Essen Biosciences Cat no. 4478) at a multiplicity of infectivity (MOI) of 0.5 to 2.5 for 24 hours. MOI refers to the ratio of virus particles to cells. Virus-containing media was replaced with fresh growth media and incubated for an additional 24 to 48 hours, followed by selection with Zeocin (500 to 2000 μg/mL), a derivative of bleomycin (Life Technologies-Invitrogen Cat no. R250-01). Cells were selected with fresh Zeocin every 3 to 4 days for 3 to 8 weeks. Cells were periodically viewed using fluorescent microscopy for nuclear-restricted red fluorescence. Zeocin selection was terminated once the population was confirmed to stably fluoresce red. All Red-labeled cell lines were acclimated to EMEM containing 20% FBS, with or without GM-CSF supplementation, allowing for optimal live cell imaging.
Incubation of Cell Cultures with Compound 1: Compound 1 was provided for studies by Celgene chemistry group at a stock concentration of 30 mM in 20 μL dimethyl sulfoxide (DMSO) frozen. Costar 96-well cell culture plates (Corning Cat no. 3595) were coated with 100 μL of 10 µg/mL fibronectin (Sigma-Aldrich Cat no. F1141) for 4 hours at 37° C. and immediately used or refrigerated overnight for later use. Cells (3000 to 6000 cells) were plated in growth medi in fibronectin-coated 96-well plates and incubated for a minimum of a few hours to overnight. Cells were incubated with a 12-point concentration response in triplicate with Compound 1 ([…]) including DMSO and Media controls. A 3-fold serial dilution of Compound 1 starting from a concentration of 200 μM in 0.6% DMSO (diluted in Media) was performed. For most sensitive cell lines, a 3-fold serial dilution of Compound 1 starting from a concentration of 20 μM in 0.6% DMSO (diluted in media) was performed. A volume of 5 μL or 10 μL for each dilution was added to 100 μL or 200 μL cells, respectively (0.3% DMSO final) and incubated for live cell imaging.
Live Cell Imaging on IncuCyte Zoom: Following incubation of cells with Compound 1, diluted Caspase 3/7 reagent (Essen Biosciences Cat no. 4440) is added to each well. […] Caspase-3/7 activation was quantified using the IncuCyte™ ZOOM basic analyzer. […]
Twelve Red-labeled human AML cell lines, established as described above, were incubated with Compound 1 dose range (0 to 10 μM) and Red fluorescence or Object count was imaged over time, as described above. […]

OCI-AML3 = assay: Annexin V/7-AAD flow cytometry apoptosis assay; assay type: cell-based, human; details: OCI-AML3 (Compound 1-insensitive AML line)
Experimental: Cell Apoptosis Assays: The ability of Compound 1 to induce apoptosis was assessed in selected AML cell lines and healthy PBMCs at the time points and compound concentrations indicated. For Annexin V/7-AAD readout by flow cytometry, AML cell lines were plated into flat bottom 96-well plates (BD Falcon) at a seeding density of 0.1 to 0.3×10^6 cells per mL in 200 μL complete media. Compound 1 was dispensed onto the plates and the cells were incubated for the times indicated. For frozen PBMCs, cells were thawed as previously described and plated at a seeding density of 1×10^6 cells per mL in 200 μL on Corning® BioCoat™ T-Cell Activation Anti-Human CD3 96-well plates (Corning Inc., Corning, N.Y.). Compound 1 was dispensed onto the plates and the cells were incubated for the times indicated. […] One hundred microliters of Annexin V/7-AAD buffer was added per well and the cells incubated for 15 minutes before being analyzed using the Attune Flow Cytometer (Life Technologies, Carlsbad, Calif.). For caspase 3/7 activity, the remaining 100 μL was incubated with CellEvent™ Caspase-3/7 Green ReadyProbes® Reagent (1:1000 dilution; Molecular Probes) for 15 minutes before being analyzed using the Attune Flow Cytometer. […]
Compound 1 Induces Apoptosis in Acute Myeloid Leukemia Cell Lines. […] 0.01 μM and 0.1 μM and apoptosis was assessed over time.

## O=C1CCC(N2Cc3cc(CNC(=O)C(F)(F)c4ccc(Cl)cc4)ccc3C2=O)C(=O)N1 (centres unmarked) [Compound 1, 2-(4-chlorophenyl)-N-((2-(2,6-dioxopiperidin-3-yl)-1-oxoisoindolin-5-yl)methyl)-2,2-difluoroacetamide]
[1]; four moderately sensitive cell lines (TF-1, THP-1, SIG-M5, OCI-AML3), read-out: cell viability EC50 96hr (range)
  EC50: 0.058 to 0.186 µM
[1]; four moderately sensitive cell lines, read-out: cell viability average EC50 96hr
  EC50: 0.121 µM
[1]; seven highly sensitive cell lines (AML-193, ML-2, HL-60, KG-1, NOMO-1, MV-4-11, OCI-AML2), read-out: cell viability EC50 96hr (range)
  EC50: 0.002 to 0.04 µM
[1]; seven highly sensitive cell lines, read-out: cell viability average EC50 96hr
  EC50: 0.015 µM
OCI-AML3
  induction of apoptosis: did not induce apoptosis
